{"source": "patent US20260294865A1", "about": "“AUTOPHAGY ACTIVATOR AND AUTOPHAGY ACTIVATION COMPOSITION” (MARUZEN PHARMACEUTICALS CO., LTD., priority 2023, published 2026)", "tested_on": "HeLa cells stably expressing tfLC3", "assay": "tfLC3 test (autophagy activity, GFP/RFP ratio)", "format": "cell-based", "details": "for Ratio with respect to DMSO (GFP/RFP value, negative control taken as 1): final concentration 10 μM, 24 hours, HeLa cells stably expressing tfLC3, negative control 0.1% DMSO = 1, lower value = autophagy activation; for autophagy activation effect (in words): tfLC3 test, GFP/RFP ratio lower than negative control", "excerpt": "An autophagy activation effect was examined by a tfLC3 test using the compound represented by the structural formula (1) (manufactured by INDOFINE Chemical Company) and the compound represented by the structural formula (2) (manufactured by INDOFINE Chemical Company) as test samples.\nThe tfLC3 test is a test performed by using tfLC3, in which LC3 that is an autophagosome marker protein is tandemly tagged with fluorescent proteins mRFP (RFP: Red Fluorescent Protein) and EGFP (GFP: Green Fluorescent Protein) (Autophagy 2007; 3:452-460. (PubMed: 17534139) DOI: 10.4161/auto. 4451).\nIn a cell undergoing autophagy, LC3 dots increase. However, LC3 is accumulated in a cell even if degradation due to autophagy is inhibited. Therefore, an increase of the LC3 dots alone cannot be used to conclude that autophagy is enhanced. Therefore, enhancement and inhibition of autophagy can be distinguished by examining the maturation process of autophagosomes (process of fusion of autophagosomes with lysosomes, or degradation in autolysosomes after fusion).\nA fluorescent signal (green) of GFP of the tfLC3 is attenuated in the environment within the lysosomes, but RFP (red) is stable in the same environment. By using this characteristic of tfLC3 that fluorescence becomes red due to quenching of GFP in the process of maturing autophagosomes into autolysosomes, a GFP/RFP ratio within a cell is analyzed in the tfLC3 test to determine whether or not a test sample added to a medium has an autophagy activation capability.\nHeLa cells stably expressing tfLC3 were seeded in a 96-well plate (Perkin Elmer #6055302 Cell Carrier 96 Ultra Black 96 well, Clear Bottom, with Lid), and the HeLA cells were cultured in a growth medium [Growth medium (DMEM (Sigma D6546) supplemented with 10% FBS and 4 mM L-glutamine] in a 5% CO2 incubator for 24 hours. Then, the medium was replaced with a medium to which a test sample was added (see Table 1 for the final concentration of the test sample), followed by culturing for 24 hours.\nAs a negative control, cells cultured in a medium including 0.1% dimethyl sulfoxide (DMSO) were used.\nThe GFP/RFP value (may be referred to as a “ratio with respect to DMSO” hereinafter) measured in the cells cultured in the test sample-added medium was calculated by determining the GFP/RFP value measured in the negative control as 1.\nA test sample that has a lower value for the GFP/RFP ratio than the value for the GFP/RFP ratio of the negative control can be determined as having an autophagy activation effect.", "data": [{"compound": "COc1cc(OC)c2c(=O)cc(-c3ccc(OC)c(OC)c3)oc2c1", "note": "[2-(3,4-dimethoxyphenyl)-5,7-dimethoxy-4H-chromen-4-one]", "values": [{"measurement": "Ratio with respect to DMSO (GFP/RFP value, negative control taken as 1)", "value": 0.847}, {"measurement": "autophagy activation effect (in words)", "value": "had the autophagy activation effect"}]}, {"compound": "COc1ccc2c(=O)c(OC)c(-c3cc(OC)c(OC)c(OC)c3)oc2c1", "note": "[3,7-dimethoxy-2-(3,4,5-trimethoxyphenyl)-4H-chromen-4-one]", "values": [{"measurement": "Ratio with respect to DMSO (GFP/RFP value, negative control taken as 1)", "value": 0.848}, {"measurement": "autophagy activation effect (in words)", "value": "had the autophagy activation effect"}]}]}
